Legend:
[1] = target: T1, SIRT1 (Homo sapiens, UniProt Q96EB6); experiment: TAMRA based mass spectrometry assay of SIRT1 activity; type: biochemical; conditions: TAMRA peptide substrate; for TAMRA EC1.5 (μM): concentration of test compound giving 150% activation of SIRT1; for Emax: percent maximum fold activation of SIRT1, read-out: TAMRA % Fold Act
T1 sequence (Q96EB6 1-747): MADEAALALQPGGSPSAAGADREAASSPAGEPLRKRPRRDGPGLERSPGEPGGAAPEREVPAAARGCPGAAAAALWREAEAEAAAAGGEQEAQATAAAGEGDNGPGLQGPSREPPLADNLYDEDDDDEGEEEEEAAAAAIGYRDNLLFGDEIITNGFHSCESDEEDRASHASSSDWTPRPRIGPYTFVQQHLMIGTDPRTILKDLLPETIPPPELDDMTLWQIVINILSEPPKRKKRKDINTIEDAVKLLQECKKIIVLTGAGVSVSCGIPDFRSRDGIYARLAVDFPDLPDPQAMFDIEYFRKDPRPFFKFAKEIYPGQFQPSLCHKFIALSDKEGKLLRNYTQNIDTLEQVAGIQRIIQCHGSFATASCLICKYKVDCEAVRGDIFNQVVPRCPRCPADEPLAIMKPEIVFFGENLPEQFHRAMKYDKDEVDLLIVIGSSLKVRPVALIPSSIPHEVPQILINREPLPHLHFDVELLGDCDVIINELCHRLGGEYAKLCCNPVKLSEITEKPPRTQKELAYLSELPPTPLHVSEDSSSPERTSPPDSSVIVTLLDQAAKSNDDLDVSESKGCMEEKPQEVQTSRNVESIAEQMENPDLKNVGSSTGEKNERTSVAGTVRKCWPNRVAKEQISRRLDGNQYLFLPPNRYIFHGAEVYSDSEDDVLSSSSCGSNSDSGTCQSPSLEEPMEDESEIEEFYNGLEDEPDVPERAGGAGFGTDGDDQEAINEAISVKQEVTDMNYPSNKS
Method in brief: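 Recombinant N-terminal His-tagged human SIRT1 (10 nM, E. coli) incubated 25 min at 25 °C with 0.5 μM 5TMR-labelled p53-derived acetyl-peptide and 120 μM βNAD+ in Tris-acetate pH 8 buffer with DTT and 0.05% BSA, compound at varying concentrations. Stopped with formic acid; deacetylated peptide or OAADPR measured by mass spectrometry relative to DMSO controls.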

[2] = target: T1, SIRT1; experiment: Trp mass spectrometry assay of SIRT1 activity; type: biochemical; conditions: Trp peptide substrate; for Trp EC1.5 (μM): concentration of test compound giving 150% activation of SIRT1; for Emax: percent maximum fold activation of SIRT1, read-out: Trp % Fold Act
Method in brief: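 His-tagged SIRT1 expressed in E. coli BL21(DE3), 10 nM, incubated 25 min at 25° C. with 0.5 μM Ac-RHKK(Ac)W-NH2 peptide and 120 μM βNAD+ in 50 mM HEPES pH 7.5, […], 1 mM DTT, 0.05% BSA; formic acid stop. OAADPR or deacetylated peptide measured by mass spectrometry; EC1.5 and percent maximum activation versus DMSO control.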

Structure (SMILES)	TAMRA EC1.5 (μM) [1]	Emax [1]	Trp EC1.5 (μM) [2]	Emax [2]
O=C(Nc1cccc(N2CCOCC2)n1)c1cnc2ccc(-c3ccc(F)c(F)c3F)nn12 [Compound 126]	A (EC1.5<1 μM)	< 350%	B (EC1.5 1-25 μM)	< 350%
O=C(Nc1ccncc1)c1cnc2ccc(-c3ccc(F)c(F)c3F)nn12 [Compound 128]	C (EC1.5>25 μM)	< 350%	C (EC1.5>25 μM)	< 350%
O=C(Nc1cccnc1)c1cnc2ccc(-c3ccc(F)c(F)c3F)nn12 [Compound 131]	C (EC1.5>25 μM)	< 350%	C (EC1.5>25 μM)	< 350%
O=C(Nc1cccc(N2CCOCC2)n1)c1cnc2ccc(-c3ccccc3F)nn12 [Compound 133]	A (EC1.5<1 μM)	≥ 350%	A (EC1.5<1 μM)	< 350%
O=C(Nc1ccnc(N2CCC2)c1)c1cnc2ccc(-c3ccccc3F)nn12 [Compound 134]	A (EC1.5<1 μM)	≥ 350%	C (EC1.5>25 μM)	< 350%
O=C(Nc1cccc(CN2CCOCC2)n1)c1cnc2ccc(-c3cccc(Cl)c3F)nn12 [Compound 140]	A (EC1.5<1 μM)	≥ 350%	B (EC1.5 1-25 μM)	< 350%
O=C(Nc1ccncc1)c1cnc2ccc(-c3cccc(Cl)c3F)nn12 [Compound 141]	C (EC1.5>25 μM)	< 350%	C (EC1.5>25 μM)	< 350%
O=C(Nc1cccnc1)c1cnc2ccc(-c3cccc(Cl)c3F)nn12 [Compound 143]	C (EC1.5>25 μM)	< 350%	A (EC1.5<1 μM)	< 350%
O=C(Nc1cnc2ccc(-c3ccccc3C(F)(F)F)nn12)c1cccnc1OCC(O)CO (centres unmarked) [Compound 146]	A (EC1.5<1 μM)	≥ 350%	B (EC1.5 1-25 μM)	≥ 350%
O=C(Nc1ccc(CN2CCCC2)nc1)c1cnc2ccc(-c3ccccc3C(F)(F)F)nn12 [Compound 149]	B (EC1.5 1-25 μM)	< 350%	B (EC1.5 1-25 μM)	< 350%
O=C(Nc1ncc(CN2CCOCC2)s1)c1cnc2ccc(-c3ccccc3C(F)(F)F)nn12 [Compound 150]	B (EC1.5 1-25 μM)	< 350%	B (EC1.5 1-25 μM)	< 350%
Cc1csc(NC(=O)c2cnc3ccc(-c4ccccc4C(F)(F)F)nn23)n1 [Compound 152]	A (EC1.5<1 μM)	≥ 350%	A (EC1.5<1 μM)	≥ 350%
CN(C)CCn1cc(NC(=O)c2cnc3ccc(-c4ccccc4C(F)(F)F)nn23)cn1 [Compound 155]	B (EC1.5 1-25 μM)	< 350%	C (EC1.5>25 μM)	< 350%
O=C(Nc1ccnc(N2CCC2)c1)c1cnc2ccc(-c3cccc(Cl)c3F)nn12 [Compound 159]	A (EC1.5<1 μM)	< 350%	B (EC1.5 1-25 μM)	< 350%
O=C(Nc1ccncc1)c1cnc2ccc(-c3c(F)cccc3Cl)nn12 [Compound 161]	B (EC1.5 1-25 μM)	< 350%	C (EC1.5>25 μM)	< 350%
O=C(Nc1cccc(N2CCOCC2)n1)c1cnc2ccc(-c3c(F)cccc3Cl)nn12 [Compound 164]	A (EC1.5<1 μM)	≥ 350%	B (EC1.5 1-25 μM)	< 350%
O=C(Nc1ccccn1)c1cnc2ccc(-c3c(F)cccc3F)nn12 [Compound 167]	C (EC1.5>25 μM)	< 350%	C (EC1.5>25 μM)	< 350%
